Patent US20240299385A1 (ReWind Therapeutics NV, priority 2021, published 2024)

Target: T1, human GPR17 receptor (Homo sapiens, UniProt Q13304)
T1 construct: host or cells: HEK-293
Assay: Calcium mobilization functional assay (Fluo-8, FLIPR TETRA) in HEK-293 hGPR17 (Gα-q assay)
Type: cell-based
Conditions: antagonism of MDL29,951 (~EC80) induced Ca2+ signal; cell line (HEK-293 hGPR17 or HEK-293 Suchi5 hGPR17) not given
How it was run: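 Fluo-8-loaded HEK-293 hGPR17 cells (60 min dye loading, room temperature) were preincubated with compound for twenty minutes, then challenged with agonist MDL29,951 at ~EC80, 500 nM. Intracellular calcium release via Gα-q was recorded as FLIPR fluorescence for a further 2 minutes; compounds tested in duplicate.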

T1 sequence (Q13304 whole entry): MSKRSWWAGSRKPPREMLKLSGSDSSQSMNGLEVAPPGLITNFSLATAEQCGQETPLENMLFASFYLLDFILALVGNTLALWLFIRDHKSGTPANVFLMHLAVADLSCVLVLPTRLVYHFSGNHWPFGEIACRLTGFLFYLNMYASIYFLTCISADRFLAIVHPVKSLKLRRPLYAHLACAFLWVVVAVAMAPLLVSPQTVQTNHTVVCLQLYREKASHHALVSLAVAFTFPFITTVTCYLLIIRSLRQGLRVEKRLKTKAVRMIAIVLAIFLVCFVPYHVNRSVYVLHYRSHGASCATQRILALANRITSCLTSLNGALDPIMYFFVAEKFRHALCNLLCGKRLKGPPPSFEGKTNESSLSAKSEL

IC50	Structure (SMILES)
< 500 nM	COc1c(Cl)cccc1-c1cc(S(=O)(=O)Nc2ccc(C#N)cc2F)c[nH]1 [Cpd 394, 5-(3-chloro-2-methoxyphenyl)-N-(4-cyano-2-fluorophenyl)-1H-pyrrole-3-sulfonamide]
< 500 nM	N#Cc1ccc(NS(=O)(=O)c2c[nH]c(-c3nccc4ccccc34)c2)c(F)c1 [Cpd 396, N-(4-cyano-2-fluorophenyl)-5-isoquinolin-1-yl-1H-pyrrole-3-sulfonamide]
500 to 5000 nM	N#Cc1ccc(NS(=O)(=O)c2c[nH]c(-c3ccccc3OC3CC3)c2)c(F)c1 [Cpd 397, N-(4-cyano-2-fluorophenyl)-5-(2-cyclopropyloxyphenyl)-1H-pyrrole-3-sulfonamide]
500 to 5000 nM	N#Cc1ccc(NS(=O)(=O)c2c[nH]cc2-c2cccs2)c(F)c1 [Cpd 398, N-(4-cyano-2-fluorophenyl)-4-thiophen-2-yl-1H-pyrrole-3-sulfonamide]
500 to 5000 nM	O=S(=O)(Nc1cc(OC(F)F)c(Cl)cc1F)c1c[nH]c(-c2ccccc2)c1 [Cpd 399, N-[4-chloro-5-(difluoromethoxy)-2-fluorophenyl]-5-phenyl-1H-pyrrole-3-sulfonamide]
< 500 nM	Cc1cc(-c2c[nH]cc2S(=O)(=O)Nc2ccc(C#N)cc2F)cs1 [Cpd 401, N-(4-cyano-2-fluorophenyl)-4-(5-methylthiophen-3-yl)-1H-pyrrole-3-sulfonamide]
5000 to 50000 nM	N#Cc1ccc(NS(=O)(=O)c2c[nH]cc2-c2cccc(C3CC3)c2)c(F)c1 [Cpd 402, N-(4-cyano-2-fluorophenyl)-4-(3-cyclopropylphenyl)-1H-pyrrole-3-sulfonamide]
< 500 nM	O=S(=O)(Nc1cc(F)c(OC(F)F)cc1F)c1c[nH]c(-c2ccccc2F)c1 [Cpd 409, N-[4-(difluoromethoxy)-2,5-difluorophenyl]-5-(2-fluorophenyl)-1H-pyrrole-3-sulfonamide]
< 500 nM	O=S(=O)(Nc1cc(F)c(Br)cc1F)c1c[nH]c(-c2ccccc2F)c1 [Cpd 413, N-(4-bromo-2,5-difluorophenyl)-5-(2-fluorophenyl)-1H-pyrrole-3-sulfonamide]
< 500 nM	Cc1ccc(-c2c[nH]cc2S(=O)(=O)Nc2ccc(C#N)cc2F)s1 [Cpd 420, N-(4-cyano-2-fluorophenyl)-4-(5-methylthiophen-2-yl)-1H-pyrrole-3-sulfonamide]
500 to 5000 nM	N#Cc1ccc(NS(=O)(=O)c2c[nH]c(C3CCCCC3)c2)c(F)c1 [Cpd 421, N-(4-cyano-2-fluorophenyl)-5-cyclohexyl-1H-pyrrole-3-sulfonamide]
< 500 nM	COc1nc(Cl)c(F)cc1NS(=O)(=O)c1c[nH]c(-c2ccccc2)c1 [Cpd 422, N-(6-chloro-5-fluoro-2-methoxypyridin-3-yl)-5-phenyl-1H-pyrrole-3-sulfonamide]

Further lines, the compound ahead of its results:

Structure (SMILES)	IC50
O=S(=O)(Nc1cc(F)c(C(F)(F)F)cc1F)c1c[nH]c(-c2cc(F)ccc2F)c1 [Cpd 393, 5-(2,5-difluorophenyl)-N-[2,5-difluoro-4-(trifluoromethyl)phenyl]-1H-pyrrole-3-sulfonamide]	< 500 nM
N#Cc1ccc(NS(=O)(=O)c2c[nH]cc2-c2ccsc2)c(F)c1 [Cpd 400, N-(4-cyano-2-fluorophenyl)-4-thiophen-3-yl-1H-pyrrole-3-sulfonamide]	500 to 5000 nM
O=S(=O)(Nc1cc(F)c(OC(F)F)cc1F)c1c[nH]c(-c2nccs2)c1 [Cpd 403, N-[4-(difluoromethoxy)-2,5-difluorophenyl]-5-(1,3-thiazol-2-yl)-1H-pyrrole-3-sulfonamide]	< 500 nM
O=S(=O)(Nc1cc(F)c(OC(F)F)cc1F)c1c[nH]c(-c2ncccc2F)c1 [Cpd 404, N-[4-(difluoromethoxy)-2,5-difluorophenyl]-5-(3-fluoropyridin-2-yl)-1H-pyrrole-3-sulfonamide]	< 500 nM
N#Cc1cc(F)c(NS(=O)(=O)c2c[nH]cc2Cc2ccccc2)cc1F [Cpd 407, 4-benzyl-N-(4-cyano-2,5-difluorophenyl)-1H-pyrrole-3-sulfonamide]	< 500 nM
O=S(=O)(Nc1ncc(OC(F)F)cc1F)c1c[nH]c(-c2ccccc2)c1 [Cpd 408, N-[5-(difluoromethoxy)-3-fluoropyridin-2-yl]-5-phenyl-1H-pyrrole-3-sulfonamide]	500 to 5000 nM
O=S(=O)(Nc1cc(F)c(OC(F)F)cc1F)c1c[nH]c(-c2cc(Cl)ccc2F)c1 [Cpd 410, 5-(5-chloro-2-fluorophenyl)-N-[4-(difluoromethoxy)-2,5-difluorophenyl]-1H-pyrrole-3-sulfonamide]	500 to 5000 nM
O=S(=O)(Nc1cc(F)c(OC(F)F)cc1F)c1c[nH]c(-c2ccc(F)cc2)c1 [Cpd 411, N-[4-(difluoromethoxy)-2,5-difluorophenyl]-5-(4-fluorophenyl)-1H-pyrrole-3-sulfonamide]	500 to 5000 nM
O=S(=O)(Nc1cc(F)c(OC(F)F)cc1F)c1c[nH]c(-c2ccc(F)cc2F)c1 [Cpd 412, N-[4-(difluoromethoxy)-2,5-difluorophenyl]-5-(2,4-difluorophenyl)-1H-pyrrole-3-sulfonamide]	500 to 5000 nM
O=S(=O)(Nc1cc(F)c(Br)cc1F)c1c[nH]c(-c2cc(Cl)ccc2F)c1 [Cpd 414, N-(4-bromo-2,5-difluorophenyl)-5-(5-chloro-2-fluorophenyl)-1H-pyrrole-3-sulfonamide]	500 to 5000 nM
N#CCOc1cc(F)c(NS(=O)(=O)c2c[nH]cc2Cc2ccccc2)cc1F [Cpd 415, 4-benzyl-N-[4-(cyanomethoxy)-2,5-difluorophenyl]-1H-pyrrole-3-sulfonamide]	500 to 5000 nM
N#Cc1cc(F)c(NS(=O)(=O)c2c[nH]cc2Cc2cccs2)cc1F [Cpd 416, N-(4-cyano-2,5-difluorophenyl)-4-(thiophen-2-ylmethyl)-1H-pyrrole-3-sulfonamide]	< 500 nM
O=S(=O)(Nc1cc(F)c(Br)cc1F)c1c[nH]cc1Cc1cccs1 [Cpd 417, N-(4-bromo-2,5-difluorophenyl)-4-(thiophen-2-ylmethyl)-1H-pyrrole-3-sulfonamide]	500 to 5000 nM
O=S(=O)(Nc1cc(F)c(C(F)(F)F)cc1F)c1c[nH]cc1Cc1cccs1 [Cpd 418, N-[2,5-difluoro-4-(trifluoromethyl)phenyl]-4-(thiophen-2-ylmethyl)-1H-pyrrole-3-sulfonamide]	< 500 nM
O=S(=O)(Nc1cc(OC(F)F)c(Cl)cc1F)c1c[nH]c(-c2ccccn2)c1 [Cpd 419, N-[4-chloro-5-(difluoromethoxy)-2-fluorophenyl]-5-pyridin-2-yl-1H-pyrrole-3-sulfonamide]	500 to 5000 nM
O=S(=O)(Nc1cc(F)c(C(F)(F)F)cc1F)c1c[nH]c(C2CCCCC2)c1 [Cpd 423, 5-cyclohexyl-N-[2,5-difluoro-4-(trifluoromethyl)phenyl]-1H-pyrrole-3-sulfonamide]	500 to 5000 nM
O=S(=O)(Nc1cc(F)c(C(F)(F)F)cc1F)c1c[nH]c(C2CCOC2)c1 (stereo not shown) [Cpd 424, N-[2,5-difluoro-4-(trifluoromethyl)phenyl]-5-(oxolan-3-yl)-1H-pyrrole-3-sulfonamide]	500 to 5000 nM
O=S(=O)(Nc1cc(OC(F)F)c(Cl)cc1F)c1c[nH]cc1-c1cccc(F)c1 [Cpd 425, N-[4-chloro-5-(difluoromethoxy)-2-fluorophenyl]-4-(3-fluorophenyl)-1H-pyrrole-3-sulfonamide]	500 to 5000 nM
O=S(=O)(Nc1cc(OC(F)F)c(Cl)cc1F)c1c[nH]cc1Cc1ccccc1 [Cpd 426, 4-benzyl-N-[4-chloro-5-(difluoromethoxy)-2-fluorophenyl]-1H-pyrrole-3-sulfonamide]	500 to 5000 nM
